For 22 molecules, DC50 and Dmax results are on record in patent US20240327381A1, “Compounds and Compositions for Selective Degradation of Engineered Proteins” (Celgene Corporation, priority 2023, published 2024).

Assay [1] has as its target T1, IKZF1 ZNF2_ZNF3 Q1F degron-tagged CD19 CAR (Homo sapiens, UniProt Q13422, Q146F).
T1 construct: ZNF2_ZNF3 Q1F degron (GERPFFCNQCGASFTQKGNLLRHIKLHSGEKPFKCHLCNYACRRRDALTGHLRTHS); fused on or other part: anti-CD19 scFv, CD28 transmembrane domain, 4-1BB costimulatory domain, CD3 zeta signaling domain (the CAR that carries the degron), and Nluc
Description: Degradation of Q1F degron-tagged CD19 CAR in Jurkat cells (flow cytometry of CAR levels). It is filed as cell-based. The note with it: for DC50: Jurkat cells expressing CD19 CAR tagged with IKZF1 ZNF2_ZNF3 Q1F, 18 hours at 37° C., CAR levels normalized to untreated cells, read-out: Q1F Jurkat IC50; for Dmax: Ymax is the % protein degraded, Jurkat cells expressing Q1F degron-tagged CD19 CAR, 18 hours, read-out: Q1F Jurkat-YMax. The gist of the method: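 Jurkat cells were lentivirally transduced with an anti-CD19 scFv/CD28 TM/4-1BB/CD3ζ CAR tagged with an IKZF1 ZNF2_ZNF3 Q1F degron–Nluc, then treated with compound titrations for 18 h at 37 °C. CAR surface levels were stained (20 min, 4 °C), read by flow cytometry and normalised to untreated cells. EC50 came from a four-parameter logistic fit; Ymin is the minimum % CAR remaining.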
A general note: In flow cytometry, cells or beads pass a laser one at a time.

Another assay concerns the target T2, Helios (Homo sapiens, UniProt Q9UKS7).
T2 construct: endogenous in cells; host or cells: Jurkat cells, CRISPR/Cas9 knock-in of HiBit at the IKZF2 locus
The assay is described as follows: Helios degradation in Jurkat/Helios/HiBit cells (Nano-Glo luminescence). The note with it: 18 hr, read-out: Helios Jurkat Hibit IC50. It is filed as cell-based. The gist of the method:
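Jurkat cells carrying CRISPR-knocked-in C-terminal HiBit-tagged endogenous IKZF2 were treated with compound in DMEM/10% FCS (10,000 cells/well) for 18 h at 37 °C. HiBit signal was read by Nano-Glo luminescence after 30 min at RT. EC50 for degradation came from a four-parameter logistic fit, with Ymax as % protein degraded.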
Background: HiBiT is a short tag that completes a luciferase, so light tracks the accessible tagged protein.

T1 sequence (Q13422 whole entry Q146F, the tested form may be a part): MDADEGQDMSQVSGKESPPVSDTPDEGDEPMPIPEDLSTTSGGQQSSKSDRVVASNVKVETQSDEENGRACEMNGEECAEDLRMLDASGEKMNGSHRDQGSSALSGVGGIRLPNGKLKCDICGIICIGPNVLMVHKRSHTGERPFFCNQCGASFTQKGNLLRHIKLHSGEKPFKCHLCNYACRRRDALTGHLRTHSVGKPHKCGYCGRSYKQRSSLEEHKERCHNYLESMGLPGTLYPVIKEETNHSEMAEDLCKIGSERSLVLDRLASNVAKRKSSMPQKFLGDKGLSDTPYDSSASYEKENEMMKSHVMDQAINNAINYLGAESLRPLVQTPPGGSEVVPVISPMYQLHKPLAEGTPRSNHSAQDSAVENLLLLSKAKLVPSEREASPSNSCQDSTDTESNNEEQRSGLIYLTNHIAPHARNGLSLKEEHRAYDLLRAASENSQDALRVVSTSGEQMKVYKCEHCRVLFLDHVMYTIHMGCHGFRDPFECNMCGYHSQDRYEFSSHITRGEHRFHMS
T2 sequence (Q9UKS7 whole entry): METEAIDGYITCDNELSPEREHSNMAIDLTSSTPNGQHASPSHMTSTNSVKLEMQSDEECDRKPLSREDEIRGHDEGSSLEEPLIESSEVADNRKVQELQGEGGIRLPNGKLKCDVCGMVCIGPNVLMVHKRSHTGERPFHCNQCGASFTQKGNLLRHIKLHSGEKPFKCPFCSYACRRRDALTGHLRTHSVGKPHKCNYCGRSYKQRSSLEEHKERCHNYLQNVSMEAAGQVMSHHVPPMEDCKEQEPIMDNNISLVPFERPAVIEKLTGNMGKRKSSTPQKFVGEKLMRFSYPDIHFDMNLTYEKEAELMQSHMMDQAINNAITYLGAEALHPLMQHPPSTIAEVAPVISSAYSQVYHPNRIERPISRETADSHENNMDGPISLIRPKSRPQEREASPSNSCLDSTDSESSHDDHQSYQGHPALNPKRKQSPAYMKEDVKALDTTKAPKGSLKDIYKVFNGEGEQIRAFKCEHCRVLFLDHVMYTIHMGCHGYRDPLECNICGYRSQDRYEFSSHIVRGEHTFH
T2 sequence (Q96SW2 whole entry, further chain): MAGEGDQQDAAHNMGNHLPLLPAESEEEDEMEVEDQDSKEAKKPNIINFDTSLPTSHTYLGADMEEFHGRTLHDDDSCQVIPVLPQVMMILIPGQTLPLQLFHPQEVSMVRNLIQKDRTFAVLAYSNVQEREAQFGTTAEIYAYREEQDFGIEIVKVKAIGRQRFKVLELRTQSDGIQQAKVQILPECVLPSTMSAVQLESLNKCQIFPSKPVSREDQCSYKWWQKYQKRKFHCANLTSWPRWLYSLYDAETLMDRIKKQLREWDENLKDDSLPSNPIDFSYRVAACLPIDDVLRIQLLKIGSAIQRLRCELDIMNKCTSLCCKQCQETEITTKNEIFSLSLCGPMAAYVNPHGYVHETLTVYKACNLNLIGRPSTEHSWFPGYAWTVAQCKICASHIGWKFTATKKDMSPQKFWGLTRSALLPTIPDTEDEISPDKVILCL
T2 sequence (Q16531 whole entry partner): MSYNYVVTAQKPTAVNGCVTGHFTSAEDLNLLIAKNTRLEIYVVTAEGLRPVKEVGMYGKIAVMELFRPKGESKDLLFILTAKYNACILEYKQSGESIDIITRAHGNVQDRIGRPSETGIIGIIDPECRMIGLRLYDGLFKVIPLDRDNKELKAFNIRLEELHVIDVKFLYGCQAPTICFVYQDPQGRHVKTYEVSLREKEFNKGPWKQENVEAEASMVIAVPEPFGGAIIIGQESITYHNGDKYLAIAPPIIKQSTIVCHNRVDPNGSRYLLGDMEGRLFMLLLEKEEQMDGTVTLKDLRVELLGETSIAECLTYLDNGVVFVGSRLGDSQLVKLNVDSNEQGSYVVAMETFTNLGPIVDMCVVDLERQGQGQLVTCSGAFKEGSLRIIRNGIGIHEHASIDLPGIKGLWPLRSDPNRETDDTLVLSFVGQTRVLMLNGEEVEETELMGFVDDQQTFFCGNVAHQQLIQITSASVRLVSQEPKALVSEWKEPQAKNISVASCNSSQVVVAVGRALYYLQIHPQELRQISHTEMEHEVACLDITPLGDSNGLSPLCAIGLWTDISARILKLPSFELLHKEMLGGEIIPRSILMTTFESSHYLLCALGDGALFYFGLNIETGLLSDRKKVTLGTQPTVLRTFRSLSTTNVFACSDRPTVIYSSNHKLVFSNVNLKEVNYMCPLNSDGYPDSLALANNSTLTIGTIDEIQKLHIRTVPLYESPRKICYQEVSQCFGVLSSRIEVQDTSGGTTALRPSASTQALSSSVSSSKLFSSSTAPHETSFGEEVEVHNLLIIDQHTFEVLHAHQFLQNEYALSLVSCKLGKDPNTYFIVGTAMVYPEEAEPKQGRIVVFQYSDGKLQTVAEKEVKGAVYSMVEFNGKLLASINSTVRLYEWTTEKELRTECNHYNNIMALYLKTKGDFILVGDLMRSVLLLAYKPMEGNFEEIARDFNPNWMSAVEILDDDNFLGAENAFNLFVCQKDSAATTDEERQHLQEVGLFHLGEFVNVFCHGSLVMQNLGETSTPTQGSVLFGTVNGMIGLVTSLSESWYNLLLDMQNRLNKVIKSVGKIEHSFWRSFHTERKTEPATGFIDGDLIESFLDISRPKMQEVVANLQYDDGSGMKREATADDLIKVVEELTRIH

With `Cc1cc(CN2CCC(c3c(F)cc4c(c3F)CN(C3CCC(=O)NC3=O)C4=O)CC2)nn1C` (stereo not drawn) [Compound 103, 3-(5-(1-((1,5-dimethyl-1H-pyrazol-3-yl)methyl)piperidin-4-yl)-4,6-difluoro-1-oxoisoindolin-2-yl)piperidine-2,6-dione], in assay [1], the DC50 was 1.96 nM and the Dmax stood at 84.7%. On Helios, the DC50 is ≥ 10000 nM.
The corresponding values for `O=C1CCC(N2Cc3c(cc(F)c(C4CCN(Cc5ccc(-c6ccccc6)o5)CC4)c3F)C2=O)C(=O)N1` (stereo not drawn) [Compound 5, 3-(4,6-difluoro-1-oxo-5-(1-((5-phenylfuran-2-yl)methyl)piperidin-4-yl)isoindolin-2-yl)piperidine-2,6-dione] are 5.7 nM, 85.8% and ≥ 10000 nM.
Taken in the same sequence, the figures for `O=C1CCC(N2Cc3c(cc(F)c(C4CCN(Cc5ccc(Cl)cc5)CC4)c3F)C2=O)C(=O)N1` (stereo not drawn) [Compound 96, 3-(5-(1-(4-chlorobenzyl)piperidin-4-yl)-4,6-difluoro-1-oxoisoindolin-2-yl)piperidine-2,6-dione] were 4.17 nM, 89.7% and ≥ 10000 nM.
The corresponding values for `CC(=O)Nc1ccc(CN2CCC(c3c(F)cc4c(c3F)CN(C3CCC(=O)NC3=O)C4=O)CC2)cc1` (stereo not drawn) [Compound 101, N-(4-((4-(2-(2,6-dioxopiperidin-3-yl)-4,6-difluoro-1-oxoisoindolin-5-yl)piperidin-1-yl)methyl)phenyl)acetamide] are 0.473 nM, 86.9% and ≥ 10000 nM.
As to `O=C1CC[C@H](N2Cc3c(cc(F)c(C4CC5CCC(C4)N5Cc4ccc5ncsc5c4)c3F)C2=O)C(=O)N1` (stereo partly drawn) [Compound 126, (3S)-3-(5-(8-(benzo[d]thiazol-6-ylmethyl)-8-azabicyclo[3.2.1]octan-3-yl)-4,6-difluoro-1-oxoisoindolin-2-yl)piperidine-2,6-dione], the values for the DC50 (in assay [1]; at Helios) were 0.427 nM and ≥ 10000 nM, respectively. In assay [1], the Dmax came to 92.2%.
The corresponding values for `COCCOCCN1CCC(c2c(F)cc3c(c2F)CN(C2CCC(=O)NC2=O)C3=O)CC1` (stereo not drawn) [Compound 100, 3-(4,6-difluoro-5-(1-(2-(2-methoxyethoxy)ethyl)piperidin-4-yl)-1-oxoisoindolin-2-yl)piperidine-2,6-dione] are 22.6 nM, ≥ 10000 nM and 75.5%.
For the molecule `O=C1CC[C@@H](N2Cc3c(cc(F)c(C4CC5CCC(C4)N5Cc4ccc5ncsc5c4)c3F)C2=O)C(=O)N1` (stereo partly drawn) [Compound 127, (3R)-3-(5-(8-(benzo[d]thiazol-6-ylmethyl)-8-azabicyclo[3.2.1]octan-3-yl)-4,6-difluoro-1-oxoisoindolin-2-yl)piperidine-2,6-dione], in assay [1], the DC50 was determined as 5.94 nM and the Dmax worked out at 91.2%. In addition, on Helios, the DC50 was ≥ 10000 nM.
For `O=C1CCC(N2Cc3c(cc(F)c(C(=O)N4Cc5cccnc5C4)c3F)C2=O)C(=O)N1` (stereo not drawn) [Compound 77, 3-(5-(6,7-dihydro-5H-pyrrolo[3,4-b]pyridine-6-carbonyl)-4,6-difluoro-1-oxoisoindolin-2-yl)piperidine-2,6-dione], in assay [1], the DC50 amounted to 14.8 nM and the Dmax was found to be 94.8%. Moreover, the DC50 on Helios was ≥ 10000 nM.
Taken in the same sequence, the figures for `Cc1ccc(CN2CCC(O)(c3c(F)cc4c(c3F)CN(C3CCC(=O)NC3=O)C4=O)CC2)cc1F` (stereo not drawn) [Compound 28, 3-(4,6-difluoro-5-(1-(3-fluoro-4-methylbenzyl)-4-hydroxypiperidin-4-yl)-1-oxoisoindolin-2-yl)piperidine-2,6-dione] were 4.78 nM, 79.4% and ≥ 10000 nM.
The corresponding values for `O=C1CCC(N2Cc3c(cc(F)c(C4CCN(CC5CCCCC5)CC4)c3F)C2=O)C(=O)N1` (stereo not drawn) [Compound 67, 3-(5-(1-(cyclohexylmethyl)piperidin-4-yl)-4,6-difluoro-1-oxoisoindolin-2-yl)piperidine-2,6-dione] are 0.563 nM, 89% and ≥ 10000 nM.
The corresponding values for `CN1CCC(N2CCC(c3c(F)cc4c(c3F)CN(C3CCC(=O)NC3=O)C4=O)CC2)CC1` (stereo not drawn) [Compound 125, 3-(4,6-difluoro-5-(1′-methyl-[1,4′-bipiperidin]-4-yl)-1-oxoisoindolin-2-yl)piperidine-2,6-dione] are 22.1 nM, 80.1% and ≥ 10000 nM.
Regarding `O=C1CCC(N2Cc3c(cc(F)c(C(=O)Nc4nccn4C4CCC4)c3F)C2=O)C(=O)N1` (stereo not drawn) [Compound 74, N-(1-cyclobutyl-1H-imidazol-2-yl)-2-(2,6-dioxopiperidin-3-yl)-4,6-difluoro-1-oxoisoindoline-5-carboxamide], the DC50 is 108 nM in assay [1] and ≥ 10000 nM on Helios. The Dmax in assay [1] amounted to 74.9%.
As for `O=C1CCC(N2Cc3c(cc(F)c(C4(O)CCN(Cc5ccc(C(F)(F)F)cc5O)CC4)c3F)C2=O)C(=O)N1` (stereo not drawn) [Compound 22, 3-(4,6-difluoro-5-(4-hydroxy-1-(2-hydroxy-4-(trifluoromethyl)benzyl)piperidin-4-yl)-1-oxoisoindolin-2-yl)piperidine-2,6-dione], in assay [1], the DC50 turned out to be 14.3 nM and the Dmax was found to be 80%. Moreover, the DC50 on Helios was ≥ 10000 nM.
The corresponding values for `O=C1CCC(N2Cc3c(cc(F)c(C4(O)CCN(Cc5ccc6cn[nH]c6c5)CC4)c3F)C2=O)C(=O)N1` (stereo not drawn) [Compound 42, 3-[4,6-difluoro-5-[4-hydroxy-1-(1H-indazol-6-ylmethyl)-4-piperidyl]-1-oxo-isoindolin-2-yl]piperidine-2,6-dione] are 4.39 nM, 87.7% and ≥ 10000 nM.
On to `O=C1CCC(N2Cc3c(cc(F)c(C4CCN(CCC(F)(F)F)CC4)c3F)C2=O)C(=O)N1` (stereo not drawn) [Compound 114, 3-(4,6-difluoro-1-oxo-5-(1-(3,3,3-trifluoropropyl)piperidin-4-yl)isoindolin-2-yl)piperidine-2,6-dione], for which, in assay [1], the DC50 was determined as 10.8 nM and the Dmax came out at 74.8%. Besides, the DC50 on Helios was ≥ 10000 nM.
Taken in the same sequence, the figures for `O=C1CCC(N2Cc3c(cc(F)c(C4CCN(Cc5ncccc5Br)CC4)c3F)C2=O)C(=O)N1` (stereo not drawn) [Compound 50, 3-(5-(1-((3-bromopyridin-2-yl)methyl)piperidin-4-yl)-4,6-difluoro-1-oxoisoindolin-2-yl)piperidine-2,6-dione] were 1.36 nM, 88.4% and ≥ 10000 nM.
Regarding `O=C1CCC(N2Cc3c(cc(F)c(CNC(=O)c4ccc5c(c4)CCC5)c3F)C2=O)C(=O)N1` (stereo not drawn) [Compound 92, N-((2-(2,6-dioxopiperidin-3-yl)-4,6-difluoro-1-oxoisoindolin-5-yl)methyl)-2,3-dihydro-1H-indene-5-carboxamide], in assay [1], the DC50 is 9.16 nM and the Dmax came to 63.2%. Besides, the DC50 at Helios is ≥ 10000 nM.
The corresponding values for `O=C1CCC(N2Cc3cc(C4CCN(Cc5cccc6ncsc56)CC4)c(F)cc3C2=O)C(=O)N1` (stereo not drawn) [Compound 91, 3-(5-(1-(benzo[d]thiazol-7-ylmethyl)piperidin-4-yl)-6-fluoro-1-oxoisoindolin-2-yl)piperidine-2,6-dione] are 3.9 nM, 92.1% and ≥ 10000 nM.
Taken in the same sequence, the figures for `O=C1CCC(N2Cc3c(cc(F)c(C4CCN(CC5CCOC5)CC4)c3F)C2=O)C(=O)N1` (stereo not drawn) [Compound 7, 3-(4,6-difluoro-1-oxo-5-(1-((tetrahydrofuran-3-yl)methyl)piperidin-4-yl)isoindolin-2-yl)piperidine-2,6-dione] were 0.265 nM, 86.2% and ≥ 10000 nM.
For the molecule `O=C1CCC(N2Cc3c(cc(F)c(C4(O)CCN(Cc5cc(C(F)(F)F)cc(C6CC6)n5)CC4)c3F)C2=O)C(=O)N1` (stereo not drawn) [Compound 17, 3-(5-(1-((6-cyclopropyl-4-(trifluoromethyl)pyridin-2-yl)methyl)-4-hydroxypiperidin-4-yl)-4,6-difluoro-1-oxoisoindolin-2-yl)piperidine-2,6-dione], the DC50 in assay [1] is 28.9 nM; at Helios, ≥ 10000 nM. In addition, the Dmax in assay [1] came to 69.2%.
Taken in the same sequence, the figures for `CCCCN1CCC(c2c(F)cc3c(c2F)CN(C2CCC(=O)NC2=O)C3=O)CC1` (stereo not drawn) [Compound 115, 3-(5-(1-butylpiperidin-4-yl)-4,6-difluoro-1-oxoisoindolin-2-yl)piperidine-2,6-dione] were 6.66 nM, ≥ 10000 nM and 79.7%.
Turning to `O=C1CCC(N2Cc3c(cc(F)c(C4CCN(Cc5ccc(F)cc5)CC4)c3F)C2=O)C(=O)N1` (stereo not drawn) [Compound 2, 3-(4,6-difluoro-5-(1-(4-fluorobenzyl)piperidin-4-yl)-1-oxoisoindolin-2-yl)piperidine-2,6-dione], the DC50 is 1.43 nM in assay [1] and ≥ 10000 nM at Helios. For the same molecule, in assay [1], the Dmax is 88.8%.
